Data from patent US11291201B2, “Solutions for increasing the stability and shelf life of an organ and tissue preservation solution” (Marizyme, Inc., priority 2013, dated 2022).
Read-outs that look alike come from different tables or passages of the source.

Experiments:
[1] = Procedure: The real time stability studies at 5° C. have progressed for about one year thus far.
(§1) The values of the exponents in the equation derived from the exponential fit are the first order rate constant k1 (in units of days^−1).

[2] = 40° C., Solution B
Excerpt: as §1

time until product specification for L-glutathione approached its limit of expiration ([1]; 5° C., from first order fit of 12-15 month real time data): about 100 months
energy of activation for decomposition ([1]; corresponds to Q10 value of 2.94): 19.0 kcal/mol
time until product specification for L-glutathione approached its limit of expiration [2]: approximately 73 days
Compound: N[C@@H](CCC(=O)N[C@@H](CS)C(=O)NCC(=O)O)C(=O)O [L-glutathione]
